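Cells were grown in 96-well plates and exposed to each compound for 48 hours at five concentrations; endpoints were interpolated linearly between bracketing concentrations, or set to the highest concentration if not reached. TGI marks complete inhibition of growth.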
Columns and labels:
Test in all cases: DTP human tumour cell line panel, 48 h
SF-539 CNS = test system: SF-539 CNS
NCI-H460 lung = test system: NCI-H460 lung
SW-620 colon = test system: SW-620 colon
CAKI-1 renal = test system: CAKI-1 renal
SF-295 CNS = test system: SF-295 CNS
OVCAR-4 ovarian = test system: OVCAR-4 ovarian
SN12C renal = test system: SN12C renal
MOLT-4 leukemia = test system: MOLT-4 leukemia
LOX IMVI melanoma = test system: LOX IMVI melanoma
EKVX NSCLC = test system: EKVX NSCLC
NCI-H522 lung = test system: NCI-H522 lung
M14 melanoma = test system: M14 melanoma
786-0 renal = test system: 786-0 renal
HT29 colon = test system: HT29 colon
A498 renal = test system: A498 renal
UACC-62 melanoma = test system: UACC-62 melanoma
IGROV1 ovarian = test system: IGROV1 ovarian
SF-268 CNS = test system: SF-268 CNS
LXFL 529 NSCLC = test system: LXFL 529 NSCLC
MCF7 breast = test system: MCF7 breast

With `O=c1ccc2ccccc2c2ccccc12` as the molecule, how does the TGI (SF-539 CNS) read?
Its TGI is 4.09 µM.

And the TGI (NCI-H460 lung)?
The TGI was 13.8 µM.

And the TGI (SW-620 colon)?
Its TGI is 10.9 µM.

And the TGI (CAKI-1 renal)?
Its TGI is 8.55 µM.

And the TGI (SF-295 CNS)?
Its TGI is 13.3 µM.

What about the TGI (OVCAR-4 ovarian) of the same molecule?
Its TGI is 20.4 µM.

And the TGI (SN12C renal)?
The TGI was 6.44 µM.

And the TGI (MOLT-4 leukemia)?
Its TGI is 20.3 µM.

And the TGI (LOX IMVI melanoma)?
Its TGI is 3.99 µM.

What about the TGI (EKVX NSCLC) of the same molecule?
Its TGI is 35.8 µM.

What about the TGI (NCI-H522 lung) of the same molecule?
Its TGI is 11.2 µM.

What about the TGI (M14 melanoma) of the same molecule?
The TGI was 6.52 µM.

What about the TGI (786-0 renal) of the same molecule?
Its TGI is 10.1 µM.

What about the TGI (HT29 colon) of the same molecule?
The TGI was 6.78 µM.

And the TGI (A498 renal)?
The TGI was 52.2 µM.

What about the TGI (UACC-62 melanoma) of the same molecule?
The TGI was 7.12 µM.

And the TGI (IGROV1 ovarian)?
Its TGI is 19 µM.

What about the TGI (SF-268 CNS) of the same molecule?
Its TGI is 6.19 µM.

And the TGI (LXFL 529 NSCLC)?
Its TGI is 10.4 µM.

How did the TGI (SF-539 CNS) turn out when `O=C(CC(=O)c1ccccc1)C(=O)Nc1ccc(Cl)cc1` was run?
The TGI was greater than 100 µM.

And the TGI (NCI-H460 lung)?
The TGI was greater than 55.1 µM.

And the TGI (SW-620 colon)?
Its TGI is greater than 60.2 µM.

What about the TGI (CAKI-1 renal) of the same molecule?
Its TGI is greater than 100 µM.

What about the TGI (SF-295 CNS) of the same molecule?
Its TGI is greater than 100 µM.

What about the TGI (OVCAR-4 ovarian) of the same molecule?
Its TGI is greater than 100 µM.

What about the TGI (SN12C renal) of the same molecule?
The TGI was greater than 100 µM.

And the TGI (MOLT-4 leukemia)?
Its TGI is greater than 100 µM.

What about the TGI (LOX IMVI melanoma) of the same molecule?
Its TGI is greater than 56.7 µM.

What about the TGI (EKVX NSCLC) of the same molecule?
The TGI was greater than 100 µM.

What about the TGI (NCI-H522 lung) of the same molecule?
Its TGI is greater than 100 µM.

And the TGI (M14 melanoma)?
Its TGI is greater than 100 µM.

And the TGI (786-0 renal)?
The TGI was greater than 100 µM.

What about the TGI (HT29 colon) of the same molecule?
The TGI was greater than 59.6 µM.

What about the TGI (A498 renal) of the same molecule?
The TGI was greater than 100 µM.

And the TGI (UACC-62 melanoma)?
The TGI was greater than 100 µM.

What about the TGI (IGROV1 ovarian) of the same molecule?
The TGI was greater than 100 µM.

What about the TGI (SF-268 CNS) of the same molecule?
The TGI was greater than 100 µM.

And the TGI (LXFL 529 NSCLC)?
Its TGI is greater than 100 µM.

For `CC(C)OC(=O)C1Cc2c([nH]c3ccccc23)C(c2ccccc2)N1` (centres undefined), which TGI (SF-539 CNS) is on record?
Its TGI is greater than 100 µM.

And the TGI (NCI-H460 lung)?
The TGI was greater than 100 µM.

And the TGI (SW-620 colon)?
Its TGI is greater than 100 µM.

And the TGI (CAKI-1 renal)?
Its TGI is greater than 100 µM.

And the TGI (SF-295 CNS)?
Its TGI is greater than 100 µM.

And the TGI (OVCAR-4 ovarian)?
The TGI was greater than 100 µM.

What about the TGI (SN12C renal) of the same molecule?
The TGI was greater than 100 µM.

What about the TGI (MOLT-4 leukemia) of the same molecule?
The TGI was greater than 100 µM.

What about the TGI (LOX IMVI melanoma) of the same molecule?
The TGI was greater than 100 µM.

And the TGI (EKVX NSCLC)?
Its TGI is greater than 100 µM.

And the TGI (NCI-H522 lung)?
Its TGI is greater than 100 µM.

And the TGI (M14 melanoma)?
Its TGI is greater than 100 µM.

What about the TGI (786-0 renal) of the same molecule?
The TGI was greater than 100 µM.

What about the TGI (HT29 colon) of the same molecule?
Its TGI is greater than 100 µM.

What about the TGI (A498 renal) of the same molecule?
The TGI was greater than 100 µM.

And the TGI (UACC-62 melanoma)?
The TGI was greater than 100 µM.

And the TGI (IGROV1 ovarian)?
Its TGI is greater than 100 µM.

What about the TGI (SF-268 CNS) of the same molecule?
Its TGI is greater than 100 µM.

What about the TGI (LXFL 529 NSCLC) of the same molecule?
The TGI was greater than 100 µM.

For `C#CCNC(=O)NC(CCCCNC(=O)OCc1ccccc1)C(=O)OCc1ccccc1` (centres undefined), which TGI (SF-539 CNS) is on record?
The TGI was 71.9 µM.

What about the TGI (NCI-H460 lung) of the same molecule?
Its TGI is greater than 100 µM.

What about the TGI (SW-620 colon) of the same molecule?
The TGI was greater than 100 µM.

And the TGI (CAKI-1 renal)?
The TGI was greater than 100 µM.

And the TGI (SF-295 CNS)?
The TGI was greater than 100 µM.

What about the TGI (OVCAR-4 ovarian) of the same molecule?
Its TGI is greater than 100 µM.

And the TGI (SN12C renal)?
The TGI was greater than 81.1 µM.

What about the TGI (MOLT-4 leukemia) of the same molecule?
Its TGI is 85.7 µM.

What about the TGI (LOX IMVI melanoma) of the same molecule?
Its TGI is greater than 88.4 µM.

What about the TGI (EKVX NSCLC) of the same molecule?
The TGI was greater than 100 µM.

And the TGI (MCF7 breast)?
Its TGI is greater than 100 µM.

And the TGI (NCI-H522 lung)?
The TGI was 17.1 µM.

What about the TGI (M14 melanoma) of the same molecule?
Its TGI is 58.4 µM.

What about the TGI (786-0 renal) of the same molecule?
The TGI was greater than 100 µM.

And the TGI (HT29 colon)?
The TGI was greater than 56.2 µM.

And the TGI (A498 renal)?
Its TGI is 53.6 µM.

And the TGI (UACC-62 melanoma)?
The TGI was 33.6 µM.

What about the TGI (IGROV1 ovarian) of the same molecule?
The TGI was greater than 100 µM.

What about the TGI (SF-268 CNS) of the same molecule?
The TGI was greater than 100 µM.

What about the TGI (LXFL 529 NSCLC) of the same molecule?
Its TGI is greater than 100 µM.

Which results are given for `Cc1ccc(C2=Nc3ccccc3SC(c3cccc4c3OCO4)C2)cc1` (centres undefined)?
TGI (SF-539 CNS): 40.2 µM; TGI (NCI-H460 lung): > 100 µM; TGI (SW-620 colon): 39.8 µM; TGI (CAKI-1 renal): 30 µM; TGI (SF-295 CNS): 45.6 µM; TGI (OVCAR-4 ovarian): 33.7 µM; TGI (SN12C renal): 41 µM; TGI (MOLT-4 leukemia): 55.7 µM; TGI (LOX IMVI melanoma): 31.1 µM; TGI (EKVX NSCLC): 38.7 µM; TGI (NCI-H522 lung): 31 µM; TGI (M14 melanoma): 34.9 µM; TGI (786-0 renal): 39.9 µM; TGI (HT29 colon): 33.2 µM; TGI (A498 renal): 43.6 µM; TGI (UACC-62 melanoma): 41.9 µM; TGI (IGROV1 ovarian): 42.4 µM; TGI (SF-268 CNS): 45.6 µM; TGI (LXFL 529 NSCLC): 28.9 µM

Which TGI (SF-539 CNS) does the source give for `COC(=O)c1ccc(C=C(C#N)C#N)cc1` here?
Its TGI is 39.8 µM.

What about the TGI (NCI-H460 lung) of the same molecule?
The TGI was greater than 100 µM.

What about the TGI (SW-620 colon) of the same molecule?
Its TGI is 45.1 µM.

And the TGI (CAKI-1 renal)?
The TGI was 74.7 µM.

And the TGI (SF-295 CNS)?
The TGI was 91.6 µM.

And the TGI (OVCAR-4 ovarian)?
The TGI was 47 µM.

And the TGI (SN12C renal)?
The TGI was 41.6 µM.

What about the TGI (MOLT-4 leukemia) of the same molecule?
The TGI was 65.7 µM.

What about the TGI (LOX IMVI melanoma) of the same molecule?
The TGI was 50.3 µM.

What about the TGI (EKVX NSCLC) of the same molecule?
The TGI was greater than 100 µM.

What about the TGI (NCI-H522 lung) of the same molecule?
The TGI was 30.1 µM.

What about the TGI (M14 melanoma) of the same molecule?
The TGI was 32.7 µM.

And the TGI (786-0 renal)?
Its TGI is 33.4 µM.

What about the TGI (HT29 colon) of the same molecule?
Its TGI is greater than 100 µM.

And the TGI (A498 renal)?
Its TGI is greater than 100 µM.

And the TGI (UACC-62 melanoma)?
Its TGI is 57.6 µM.

What about the TGI (IGROV1 ovarian) of the same molecule?
The TGI was 73.8 µM.

And the TGI (SF-268 CNS)?
Its TGI is 59.1 µM.

And the TGI (LXFL 529 NSCLC)?
The TGI was 37.4 µM.

Which TGI (SF-539 CNS) does the source give for `C=C1C=CC2(Br)OC3CC(C)(Cl)C(Br)CC13C2(C)C` (centres undefined) here?
Its TGI is 38.9 µM.

What about the TGI (NCI-H460 lung) of the same molecule?
Its TGI is 46 µM.

What about the TGI (SW-620 colon) of the same molecule?
The TGI was 56 µM.

What about the TGI (CAKI-1 renal) of the same molecule?
Its TGI is greater than 100 µM.

What about the TGI (SF-295 CNS) of the same molecule?
Its TGI is 45.5 µM.

And the TGI (OVCAR-4 ovarian)?
Its TGI is greater than 100 µM.

And the TGI (SN12C renal)?
Its TGI is 37.7 µM.

And the TGI (MOLT-4 leukemia)?
Its TGI is 34.9 µM.

What about the TGI (LOX IMVI melanoma) of the same molecule?
The TGI was 33.8 µM.

And the TGI (EKVX NSCLC)?
The TGI was 61.9 µM.

And the TGI (NCI-H522 lung)?
The TGI was 30.1 µM.

And the TGI (M14 melanoma)?
Its TGI is 53.2 µM.

And the TGI (786-0 renal)?
The TGI was greater than 100 µM.

What about the TGI (HT29 colon) of the same molecule?
Its TGI is 36.5 µM.

What about the TGI (A498 renal) of the same molecule?
The TGI was 46.5 µM.

And the TGI (UACC-62 melanoma)?
Its TGI is 34.3 µM.

What about the TGI (IGROV1 ovarian) of the same molecule?
The TGI was 92.7 µM.

What about the TGI (SF-268 CNS) of the same molecule?
Its TGI is greater than 100 µM.

What about the TGI (LXFL 529 NSCLC) of the same molecule?
The TGI was greater than 100 µM.

Source: PubChem BioAssay (NCI)
